Where no end group is shown, it is not given here.
Tested on: C57BL/6 mice
Assay: Evaluation of hair growth promoting activity by in vivo method (transition from telogen to anagen on shaved back)
Settings: 0.2 ml of 0.15mg/ml solution in 50% ethanol/PBS on shaved back, once a day, 5 days in a week, until 38th day
Protocol: C3H and C57BL/6 mice are known to have sustained telogen for about 50 days from the 45th day after the birth to around the 95th day. Their hair cycle is easily judged based on the skin color changes, i.e., from pink in telogen to gray or black in anagen. A test for evaluating whether or not the administration the oligopeptides of the present invention promotes the transition from telogen to anagen was carried out using the mice. Seven weeks old (48 to 50-day old, female) C57BL/6 mice were purchased and hair of the back (about 3×2.5 cm^2) was carefully shaved with electric clippers for animals so as not to injure the skin, and the hair cycle was confirmed to be in telogen from the skin color. The oligopeptide solution prepared above was applied to five mice in each group, once a day and 5 days in a week in the amount of 0.2 ml until 38th day from the start of the test. The application was carried out by using a syringe without needle. […]
Plural persons (two persons) observed the mice twice a week by naked eye for evaluation, and gave a 6-graded score depending on a ratio of hair restoration area based on the hair shaved area. […] Hair growth scores were calculated as follows. […] The sum of the above scores in each group was determined as the hair growth score. […]

SIEQSCDQDE [oligopeptide comprising murine pep7 region]
hair restoration / hair growth promoting activity (hair growth score versus control group): has hair growth promoting activity

— EP1310511A2, “Oligopeptides for promoting hair growth” (Sumitomo Electric Industries, Ltd., priority 2001, dated 2003)
